According to US10745352B2, “Dual function molecules for histone deacetylase inhibition and ataxia telangiectasia mutated activation and methods of use thereof” (Shuttle Pharmaceuticals, Inc., priority 2015, dated 2020):

What was measured:
[1] = tested on: breast cancer cells (MCF7 cells); experiment: Clonogenic cytotoxicity assay, breast cancer cells; type: cell-based; settings: Homo sapiens, cell line not named in the sentence (FIG. 9: MCF7 and 184A1)
Method: (§1) Certain compounds of the invention were tested in both an MTT cytotoxicity assay and clonogenic cytotoxicity assay against breast cancer cells (MCF7 cells) and normal breast tissue cells (184A1 cells) to determine the cytotoxic effect of such cells as a function of concentration.
(§2) Specifically, the compounds tested included: N-(6-(hydroxyamino)-6-oxohexyl)-3-methyl-1H-indole-2-carboxamide (SP-1-161); -hydroxy-N^6-(2-(2-methyl-1H-indol-3-yl)ethyl)octanediamide (SP-1-163); (S)—N-(6-(hydroxyamino)-6-oxohexyl)-1-tosylindoline-2-carboxamide (SP-1-169); and (S)-1-((5-(dimethylamino)naphthalene-1-yl)sulfonyl)-N-(6-(hydroxyamino)-6-oxoheyl)indoline-carboxamide (SP-1-171).

[2] = tested on: healthy breast epithelial cells (184A1 cells); experiment: Radiation clonogenic survival, normal breast epithelial cells; type: cell-based; settings: compound at IC50 concentration for 24 h, then gamma radiation; compared with DIM
Method: (§3) N-(6-(hydroxyamino)-6-oxohexyl)-3-methyl-1H-indole-2-carboxamide (SP-1-161) was tested against DIM in a radiation clonogenic survival study with healthy breast epithelial cells (184A1 cells) (FIG. 11A) and breast cancer cells (MCF7 cells) (FIG. 11B). After treatment with the compounds of the invention for 24 hours, the cells were exposed to graded doses of gamma radiation.
(§4) Logarithmically growing cells were seeded into T-25 flasks at various densities to yield approximately 50-100 colonies/flask. After incubation for 24 h at 37° C., cells were treated or not with the compound at the IC50 concentration for 24 h followed by sham or irradiation at room temperature using a Mark-30 irradiator with a 137-Cs source at a fixed dose rate of 2.27 Gy/min. After 10-14 days, cells were fixed and stained with crystal violet, and colonies of more than 50 cells were counted. The surviving fractions of the treated cells were normalized to the plating efficiencies of untreated controls. Radiation survival curves were fitted by computer to the single-hit, multitarget and the linear-quadratic models.
(§5) The radiation sensitivity of cells is defined by the terminal slope of the radiation survival curve, which is referred to as D0. The steeper the slope, the smaller is the value of D0, and thus the more radiation sensitive the respective cells. […]

[3] = tested on: normal prostate epithelial (RWPE1) cells vs prostate cancer (PC3) cells; experiment: MTT cytotoxicity assay, normal prostate epithelial cells versus prostate cancer cells; type: cell-based
Method: Certain compounds of the invention were tested in an MTT cytotoxicity assay against a breast cancer cell line (MCF7), prostate cancer cell line (PC3), cervical cancer cell line (CasKi), and head and neck cancer cell line (SQ20B). In the breast and prostate cancer MTT assays, certain compounds of the invention were also tested against normal breast (MCF10A) and prostate (RWPE1) epithelial tissues.
Specifically, the compounds tested included SP-1-161, SP-1-229, and SP-1-303. Suberoylanilide hydroxamic acid (SAHA), a known HDAC inhibitor, was also tested in the assay as control.

[4] = tested on: breast cancer cells (MCF7 cells); experiment: Radiation clonogenic survival, breast cancer cells; type: cell-based; settings: compound at IC50 concentration for 24 h, then gamma radiation; compared with DIM
Method: as §3, §4, §5

[5] = tested on: breast cancer cells (MCF7 cells); experiment: MTT cytotoxicity assay, breast cancer cells; type: cell-based; settings: Homo sapiens, cell line not named in the sentence (FIG. 9: MCF7 and 184A1)
Method: as §1, §2

[6] = tested on: cervical cancer cells (CasKi); experiment: Radiation clonogenic survival, cervical cancer cells; type: cell-based
Method: as §4
FIGS. 17-19 illustrate the effects of drugs on radiation cologenetic survivals. Cells were pretreated with drug 24 hours prior to exposure to graded doses of gamma radiation. Compounds SP-1-161 and SP-1-303 were tested in a clonogenic survival study with cervical cancer cells (CasKi) with a protocol similar to that described in Example 12. The radiation sensitivity of cells is defined by the terminal slope of the radiation survival curve, which is referred to as D0. The steeper the slope, the smaller the value of D0 and thus the more radiation sensitive the respective cells. Alternatively, a less steep slope results in a larger D0 and a more resistant radiation response. […]

[7] = tested on: HPV+ CasKi cells vs normal epithelial cells (RWPE1 cells); experiment: MTT cytotoxicity assay, normal epithelial cells versus HPV+ cervical cancer cells; type: cell-based, human
Method: SP-1-161 was tested in a MTT cytotoxicity assay against normal epithelial cells and human papilloma virus positive (HPV+) cancerous (CasKi) cervical cells. […] This supports the role for the compounds of the invention (e.g., SP-1-161) as treatments of HPV+ cancers and tumors.

With `Cc1c(C(=O)NCCCCCC(=O)NO)[nH]c2ccccc12` [SP-1-161, N-(6-(hydroxyamino)-6-oxohexyl)-3-methyl-1H-indole-2-carboxamide] the IC50 [1] was 0.276 µM, the “protection of normal cells from radiation (184A1)” value [2] was “protected normal cells from radiation-mediated killing” and the “fold less toxic in normal prostate epithelial (RWPE1) cells than in prostate cancer (PC3) cells” value [3] was 15 fold. For the same compound, the “radiation sensitizing activity in breast cancer cells (MCF7)” value [4] was “demonstrated radiation sensitizing activity and further outperformed DIM”, the IC50 [5] was 0.416 µM and the “D0 (terminal slope of the radiation survival curve)” value ([6]; CasKi cells pretreated with drug 24 hours before graded doses of gamma radiation, DMSO control D0=2.4) was 1.6. The “radiation sensitization of CasKi cells (decrease of D0 with respect to control)” value ([6]; CasKi cells, drug 24 hours before gamma radiation) was “sensitized CasKi cells” and the “IC50 for HPV+ CasKi cells, times lower than that for normal epithelial cells (RWPE1 cells)” value [7] was 29 times.
